IC50, Stability and Ratio data for six molecules are collected here from ChEMBL document CHEMBL5223109, “The discovery of BMS-737 as a potent, CYP17 lyase-selective inhibitor for the treatment of castration-resistant prostate cancer” (Bioorg Med Chem Lett, 2022).

The target of data set [1] is T1, Steroid 17-alpha-hydroxylase/17,20 lyase (Homo sapiens, UniProt P05093).
T1 sequence (P05093 whole entry): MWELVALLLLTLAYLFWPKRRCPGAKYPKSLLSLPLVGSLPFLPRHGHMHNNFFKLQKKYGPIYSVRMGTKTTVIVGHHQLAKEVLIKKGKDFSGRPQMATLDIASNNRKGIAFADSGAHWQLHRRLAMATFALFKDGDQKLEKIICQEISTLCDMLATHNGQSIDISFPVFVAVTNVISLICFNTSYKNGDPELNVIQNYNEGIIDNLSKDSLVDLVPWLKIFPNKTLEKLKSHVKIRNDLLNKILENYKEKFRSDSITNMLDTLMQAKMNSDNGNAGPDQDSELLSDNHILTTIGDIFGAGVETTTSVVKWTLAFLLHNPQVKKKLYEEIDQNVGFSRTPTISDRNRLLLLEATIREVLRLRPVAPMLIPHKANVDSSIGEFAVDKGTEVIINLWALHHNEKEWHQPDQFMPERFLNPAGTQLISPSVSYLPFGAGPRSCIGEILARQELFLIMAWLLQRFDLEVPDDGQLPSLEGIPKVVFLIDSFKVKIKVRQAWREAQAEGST
The experiment in a line: Inhibition of human CYP17A1. Format: ADME.

The nature of data set [2]: Metabolic stability in human liver microsomes assessed as parent compound remaining relative to control. Also: time not given here. Format: ADME, Microsome.
The nature of data set [3]: Metabolic stability in rat liver microsomes assessed as parent compound remaining. Also: time not given here. Format: ADME, Microsome.
Data set [4] can be described thus: Metabolic stability in mouse liver microsomes assessed as parent compound remaining. Also: time not given here. Format: ADME, Microsome. (Microsomes from liver hold many membrane-bound enzymes, among them those of drug oxidation.)
Another data set addresses T2, Cytochrome P450 1A2 (Homo sapiens, UniProt P05177).
T2 sequence (P05177 whole entry): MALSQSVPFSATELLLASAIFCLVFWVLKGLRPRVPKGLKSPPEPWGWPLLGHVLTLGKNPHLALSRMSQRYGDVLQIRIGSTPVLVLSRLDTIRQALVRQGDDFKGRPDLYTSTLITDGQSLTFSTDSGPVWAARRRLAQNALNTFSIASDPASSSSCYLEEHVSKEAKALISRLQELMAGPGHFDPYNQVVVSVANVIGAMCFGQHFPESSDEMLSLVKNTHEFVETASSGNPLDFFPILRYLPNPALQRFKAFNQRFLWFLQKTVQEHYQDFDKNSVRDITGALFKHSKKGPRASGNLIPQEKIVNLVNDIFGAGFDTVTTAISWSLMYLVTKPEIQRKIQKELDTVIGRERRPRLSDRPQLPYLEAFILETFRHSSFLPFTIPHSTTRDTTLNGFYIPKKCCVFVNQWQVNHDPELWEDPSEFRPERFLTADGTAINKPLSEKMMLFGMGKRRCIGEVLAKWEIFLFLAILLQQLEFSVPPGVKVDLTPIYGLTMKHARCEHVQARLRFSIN
Nature of the data set: Inhibition of CYP1A2 (unknown origin). Format: ADME.

Data set [5] deals with T1, Steroid 17-alpha-hydroxylase/17,20 lyase. Nature of the data set: Selectivity ratio for inhibition of human CYP17A1 hydroxylase activity to inhibition of human CYP17A1 lyase activity. Format: ADME.

Each structure is given as a SMILES string.

As for `Fc1ccc(-n2ncc3c(-c4cncnc4N4CC(F)(F)C4)ccnc32)cc1`, the 50% inhibitory concentration (IC50) in data set [1] was 4 nM; on Cytochrome P450 1A2, above 40000 nM. The Stability in data set [2] is listed as 85%; in data set [3], 35%; in data set [4] it was 62%. In data set [5], the Ratio amounted to 3.

`Nc1ncncc1-c1ccnc2c1cnn2-c1ccc(F)cc1C(F)(F)F`: the IC50 in data set [1] is 14 nM; against Cytochrome P450 1A2, above 40000 nM. Besides, the results for the Stability in data set [2], in data set [3] and in data set [4] were 100%, 94% and 68%, respectively. Further, the Ratio in data set [5] is reported as 3.

On to `Fc1ccc(-n2ncc3c(-c4cncnc4NCC(F)(F)F)ccnc32)cc1`, for which the IC50 in data set [1] came out at 8 nM; against Cytochrome P450 1A2, 4710 nM. The Stability came out at 42% in data set [2], 40% in data set [3] and 3% in data set [4]. Moreover, the Ratio in data set [5] is reported as 3.

`Fc1ccc(-n2ncc3c(-c4cncnc4NC4CC4)ccnc32)cc1`: the values for the 50% inhibitory concentration (IC50) (in data set [1]; at Cytochrome P450 1A2) were 46 nM and 10900 nM, respectively. The Stability in data set [2] came to 67%; in data set [3], 27%; in data set [4] it was 7%. The Ratio in data set [5] came to 6.

Take `Nc1ncncc1-c1ccnc2c1cnn2-c1ccc(F)cc1F`: the half-maximal inhibitory concentration (IC50) in data set [1] is 11 nM; on Cytochrome P450 1A2 it was above 40000 nM. Besides, the Stability in data set [2] was 98%; in data set [3], 100%; in data set [4], 92%. For the same molecule, the Ratio in data set [5] is 6.

As to `Fc1ccc(-n2ncc3c(-c4cncnc4C4CC4)ccnc32)cc1`, the 50% inhibitory concentration (IC50) was 23 nM in data set [1] and 658 nM at Cytochrome P450 1A2. Also, the Stability in data set [2] was determined as 85%; in data set [3] it was 78%; in data set [4], 55%. Moreover, in data set [5], the Ratio was found to be 13.

Broadly, the IC50 is the concentration that inhibits the measured activity by half. A high value points to weaker potency in that assay.
